Entries after “also recorded” stand apart in the source; their conditions may differ.

Test [1] relates to psoriasis scales on both elbows. Kind of test: Example 2: sumatriptan cream on left elbow versus carrier cream on right elbow in the same subject. The class given is in vivo, human. An excerpt:
A subject with scales on both elbows was recruited. The subject used twice daily for 5 days two different creams: • a.
The abovementioned design eliminates the mild possible therapeutic effect of an emollient on scales and healing. The mode of treatment eliminates as well the possibility of self healing or placebo effect.

The test system of test [2] is psoriasis lesions (scales) on elbow. Nature of the test: Example 1: topical sumatriptan cream on one elbow, then the other, in a subject with chronic psoriasis. Format: in vivo, human. Conditions: cream 0.04% w/w sumatriptan. How it is done:
A subject with chronic psoriasis was administered a cream composed of 0.04% w/w sumatriptan, Dimethicon, Capric Caprylic triglyceride, Mineral oil, Cetyl alcohol & Glyceryl stearate & PEG-75 & Ceteth-20 & Steareth-20, Cetearyl alcohol, Shea butter, Glycerin, Triclosan, Propylene Glycol, Sodium Benzoate, Methylisothiazolinone in water. It was used for five days, once daily, on one elbow. […] No change was observed on psoriasis lesions on the untreated side. The subject was instructed to use the cream once daily on the complementary elbow.

As to `CNS(=O)(=O)Cc1ccc2[nH]cc(CCN(C)C)c2c1` [sumatriptan, 1-[3-(2-Dimethylaminoethyl)-1H-indol-5-yl]-N-methyl-methanesulfonamide], in test [1] (cream 0.04% w/w sumatriptan (40 mg/100 ml), twice daily, four days after start of use, person), the “scales and skin condition of the treated (left) elbow” value is “Disappearance of scales and skin return to normal is noted; also recorded: normalized the skin”. In addition, the “duration of remission of psoriasis on the treated elbow” value in test [1] (cream 0.04% w/w sumatriptan, left elbow) is listed as “about one”. Also, the “additional time to completed skin normalization” value in test [1] (cream 0.04% w/w sumatriptan, left elbow, counted after the first four days) fell in the range of 4 to 5 days. In addition, the “skin condition of the treated elbow” value in test [2] (once daily for five days, one elbow) is reported as “Healthy skin with normalization was noted”. In addition, the “scales on the treated elbow” value in test [2] (once daily for five days, one elbow, person with chronic psoriasis) was “disappearance of scales was prominent on the treated side”. Moreover, the “skin normalization on the complementary elbow” value in test [2] (once daily, after scale disappearance) was “skin turned into normal within the next week”. Also, in test [2] (once daily, complementary elbow), the “time to scale disappearance on the complementary elbow” value was “three”.

These data come from patent publication US8680134B2, “Triptans for the treatment of psoriasis” (priority 2009, dated 2014).
